Article PMC9343874, “Comparative Pharmacokinetics of Cinobufacini Capsule and Injection by UPLC-MS/MS” (Frontiers in Pharmacology, 2022)
Read-outs that look alike come from different tables or passages of the source.

Experiments:
[1] = Pharmacokinetic study in rats after oral administration of cinobufacini capsule (UPLC-MS/MS of plasma); format: in vivo, rat; settings: for detection in rat plasma: cinobufacini capsule groups
Procedure: (§1) Male Sprague–Dawley rats (weighing 200–220 g) of SPF grade were offered by Sippr/BK laboratory Animal, Corp., Ltd. (Shanghai, China) and fed in the Laboratory Animal Center of the Shanghai University of Traditional Chinese Medicine. All the rats were kept under environmentally controlled conditions with constant temperature (22–24°C) and humidity (60–65%). The animal experiment program in the present research was approved by the Animal Committee of the Shanghai University of Traditional Chinese Medicine (PZSHUTCM210618012).
(§2) An Agilent 1290 liquid chromatographic system includes a G4220A quaternary pump, a G1326C column incubator, a G4226A automatic sampler, and a G1330B degasser. The column temperature was set to 35°C. A measure of 5 µL of samples were separated in an Agilent SB-C18 column (2.1 mm ×50 mm, 1.8 μm) and eluted at 0.3 ml/min, followed by gradient elution with water (0.1% V/V formic acid) (A) and acetonitrile (B) (0–1 min, 20%–20% B; 1–3.5 min, 20%–80% B; 4–4.1 min, 80%-20% B; 4.1–6 min, 20% B). The total run time was 6 minutes.
(§3) An Agilent 1290 Infinity series UPLC system was combined with an Agilent 6460 series triple quadrupole mass spectrometer (Agilent Technologies, Santa Clara, CA, United States) to quantify all 13 analytes in an ESI-positive ionization mode. Quantitative analysis was performed in an MRM mode. The mass spectrum conditions were as follows: capillary voltage, 4000V; drying gas (N2), gas flow rate: 10 L/min; sprayer, 30 psi; gas temperature 350°C; The delta EMV (+) 200 V; collision gas (N2); dwell time, 25 ms. Agilent’s MassHunter Workstation software was used for data collection, peak area calculation, and quantitative analysis.
(§4) A measure of 50 µL of the plasma sample was mixed with 10 µL of the internal standard solution (345 ng/ml) in a 1.5-ml centrifuge tube and vortexed for 5 min. The samples were extracted by 500 µL of ethyl acetate for 5 min and centrifuged at 4°C for 10 min (18000 rpm). All the supernatants were collected into another 1.5-ml centrifuge tube, dried under a gentle stream of nitrogen at 37°C, and then added with 50 µL of 80% methanol for resolution. The resolution samples were centrifuged at 4°C for 10 min (18000 rpm), and 5 µL supernatant was extracted and injected for analysis.
(§5) Twenty-four male Sprague–Dawley rats (weigh 200–220 g) were divided into four groups with six rats in each group randomly, including three capsule groups at three different doses and one injection group. In the instructions for cinobufacini capsule and injection, the clinical dosage for adults is 2 g per 70 kg orally and 20 ml per 70 kg intravenously, converting to rat doses of 180 mg/kg and 1.8 ml/kg, respectively.
(§6) In the pre-experiments, we compared cinobufacini capsule of 180 mg/kg (one-time clinical dose) and 900 mg/kg (five times of clinical dose) and Cinobufacini injection of 1.8 ml/kg, but concentrations of some compounds in plasma were too low and difficult to be quantified. […] The experimental rats were led to fast the night and were free to get access to water for 12 h before the pharmacokinetic study. After administration, blood samples (approximately 150 μL) of rats were collected via retro-orbital sinus into heparinized centrifuge tubes at 0.05, 0.083, 0.25, 0.5, 0.75, 1, 2, 4, 6, 8, and 10 h. After centrifugation at 5,000 rpm for 10 min, the plasma was transferred to 1.5-ml polypropylene tubes and stored at −80°C until UPLC-MS/MS analysis.
(§7) GraphPad Prism software (version 8.0.2) was used to draw the mean plasma concentration–time curves of all analytes. The pharmacokinetic parameters were calculated by DAS 3.2.8 software. Meanwhile, the pharmacokinetic data on rats were presented as mean ± standard deviation (SD). Differences of pharmacokinetic parameters between groups were analyzed by the t-test using SPSS software (version 26.0). Differences were considered significant statistically when the p-values were <0.05 and very significant statistically when the p-values were <0.01.

[2] = Pharmacokinetic study in rats after intravenous administration of cinobufacini injection (UPLC-MS/MS of plasma); format: in vivo, rat; settings: cinobufacini injection group, intravenous
Procedure: as §1, §2, §3, §4, §5, §6, §7

[3] = Stability of analytes in rat plasma QC samples under storage conditions; format: physicochemical; settings: n = 6; for Stability during 24 h at 4°C, RE: post-treatment storage in autosampler; for −80°C for 30 days, RE / Three freeze–thaw cycles, RE: rat plasma; for −80°C for 30 days, RE: long-term; for Three freeze–thaw cycles, RE: −80°C to room temperature
Procedure: The stability of QC samples in six replicates at three concentrations (low, medium, and high levels) was analyzed under different storage conditions: the post-treatment stability was analyzed after storage in an autosampler (4°C) for 24 h. Freeze–thaw stability was investigated after three freeze–thaw cycles (−80°C to room temperature as one cycle). Long-term stability was assessed by analyzing QC samples kept at −80°C for 30 days. The concentrations of the analytes in the plasma samples and the QC samples were calculated by the calibration standard curve prepared each day. The stabilities of analytes were acceptable when the accuracy (RE, %) and precision (RSD, %) of all QC samples in all storage conditions were within ±15% compared to nominal concentrations.

[4] = parameters: method as in Huang et al., 2015; settings: after administration of Shexiang Baoxin pill; ref Huang et al., 2015; cited from earlier work
[5] = parameters: method as in Wang et al., 2014; settings: administration dose 1.11 mg/kg; ref Wang et al., 2014; cited from earlier work
[6] = high QC level (249.58–250.28 ng/ml)
[7] = medium QC level (49.92–50.06 ng/ml)

Row | Structure (SMILES) | detection in rat plasma [1] | detection in rat plasma [2] | Stability during 24 h at 4°C, RE [3, 6] | Stability during 24 h at 4°C, RE ([3]; low QC level (4.99–5.00 ng/ml)) | Stability during 24 h at 4°C, RE [3, 7] | −80°C for 30 days, RE [3, 6] | −80°C for 30 days, RE ([3]; low QC level (4.99–5.00 ng/ml)) | −80°C for 30 days, RE [3, 7] | Three freeze–thaw cycles, RE [3, 6] | Three freeze–thaw cycles, RE ([3]; low QC level (4.99–5.00 ng/ml)) | Three freeze–thaw cycles, RE [3, 7] | concentration in plasma ([1]; present study) | concentration in plasma [4] | detection in plasma [4] | Cmax [5]
1 | C[C@]12CC[C@H](O)C[C@H]1CC[C@@H]1[C@@H]2CC[C@]2(C)[C@@H](c3ccc(=O)oc3)C[C@H]3O[C@]132 [RBG, resibufogenin] | could not be detected | could not be detected | −3.3% | −6.4% | 3.5% | −2.8% | −1.3% | 2.3% | −1.9% | −0.3% | 3.3% | – | – | – | –
2 | CC(=O)O[C@H]1[C@H]2O[C@]23[C@@H]2CC[C@]4(O)C[C@@H](O)CC[C@]4(C)[C@H]2CC[C@]3(C)[C@H]1c1ccc(=O)oc1 [CBT, cinobufotalin] | could not be detected | could not be detected | 4.8% | 9.8% | 7.7% | −8.7% | −0.3% | 4.1% | 12.0% | 4.3% | 13.2% | – | – | – | –
3 | CC(=O)O[C@H]1C[C@]2(O)[C@@H]3CC[C@@H]4C[C@@H](O)CC[C@]4(C)[C@H]3CC[C@]2(C)[C@H]1c1ccc(=O)oc1 [BL, bufotalin] | could not be detected | could not be detected | 5.7% | 11.4% | 5.0% | 6.0% | 2.3% | 2.1% | 7.1% | 3.4% | 3.1% | too low to calculate the pharmacokinetics parameters accurately | lower than 4.4 ng/ml | – | –
4 | CC(=O)O[C@H]1[C@H]2O[C@]23[C@@H]2CC[C@@H]4C[C@@H](O)CC[C@]4(C)[C@H]2CC[C@]3(C)[C@H]1c1ccc(=O)oc1 [CBG, cinobufagin] | could not be detected | could not be detected | 0.6% | 4.8% | −3.2% | 2.3% | 3.7% | −1.0% | 3.4% | 4.8% | 0.0% | – | – | not detected | 4.49 ng/mL
